Results from ChEMBL document CHEMBL1156394, “Low-density lipoprotein-antioxidant constituents of Saururus chinensis” (J Nat Prod, 2001).

System: Plasma
Experiment: Antioxidant activity assessed as inhibition of LDL oxidation in human plasma
Type: functional, cell-free

Compound	IC50 [µM]
C/C=C/c1ccc(O[C@@H](C)[C@@H](O)c2ccc(OC)c(OC)c2)c(OC)c1 [VIROLIN]	4.3
C/C=C/c1ccc(O[C@@H](C)[C@@H](O)c2ccc(O)c(OC)c2)c(OC)c1 [MACHILIN D]	2.9
CC(C)(Sc1cc(C(C)(C)C)c(O)c(C(C)(C)C)c1)Sc1cc(C(C)(C)C)c(O)c(C(C)(C)C)c1 [PROBUCOL]	1.3
